Tests used:
[1] = molecular target: T1, Tyrosine-protein kinase JAK2 (Homo sapiens, UniProt O60674); experiment: Binding affinity to wild type JAK2 JH2 pseudokinase domain (unknown origin) expressed in Sf9 cells and measured upto 30 mins by competitive fluorescence polarization assay
in vitro = experiment: in vitro; design: dose or concentration left out as unconfirmed; conditions: PAMPA, pH 7.4
Description: Permeability of compound in PBS buffer at pH 7.4 at 500 mM incubated for 18 hrs by UV plate reader based PAMPA assay

[2] = Binding affinity to wild type JAK2 JH1 catalytic domain (unknown origin) expressed in Sf9 cells and measured upto 30 mins by competitive fluorescence polarization assay; design: species or system Homo sapiens
[3] = molecular target: Tyrosine-protein kinase JAK2 (Homo sapiens, UniProt O60674, V617F); experiment: Binding affinity to wild type JAK2 JH2 pseudokinase domain (unknown origin) V617F mutant expressed in Sf9 cells and measured upto 30 mins by competitive fluorescence polarization assay
Chain of Tyrosine-protein kinase JAK2 (Homo sapiens, UniProt O60674, V617F) (O60674 whole entry V617F, the tested form may be a part): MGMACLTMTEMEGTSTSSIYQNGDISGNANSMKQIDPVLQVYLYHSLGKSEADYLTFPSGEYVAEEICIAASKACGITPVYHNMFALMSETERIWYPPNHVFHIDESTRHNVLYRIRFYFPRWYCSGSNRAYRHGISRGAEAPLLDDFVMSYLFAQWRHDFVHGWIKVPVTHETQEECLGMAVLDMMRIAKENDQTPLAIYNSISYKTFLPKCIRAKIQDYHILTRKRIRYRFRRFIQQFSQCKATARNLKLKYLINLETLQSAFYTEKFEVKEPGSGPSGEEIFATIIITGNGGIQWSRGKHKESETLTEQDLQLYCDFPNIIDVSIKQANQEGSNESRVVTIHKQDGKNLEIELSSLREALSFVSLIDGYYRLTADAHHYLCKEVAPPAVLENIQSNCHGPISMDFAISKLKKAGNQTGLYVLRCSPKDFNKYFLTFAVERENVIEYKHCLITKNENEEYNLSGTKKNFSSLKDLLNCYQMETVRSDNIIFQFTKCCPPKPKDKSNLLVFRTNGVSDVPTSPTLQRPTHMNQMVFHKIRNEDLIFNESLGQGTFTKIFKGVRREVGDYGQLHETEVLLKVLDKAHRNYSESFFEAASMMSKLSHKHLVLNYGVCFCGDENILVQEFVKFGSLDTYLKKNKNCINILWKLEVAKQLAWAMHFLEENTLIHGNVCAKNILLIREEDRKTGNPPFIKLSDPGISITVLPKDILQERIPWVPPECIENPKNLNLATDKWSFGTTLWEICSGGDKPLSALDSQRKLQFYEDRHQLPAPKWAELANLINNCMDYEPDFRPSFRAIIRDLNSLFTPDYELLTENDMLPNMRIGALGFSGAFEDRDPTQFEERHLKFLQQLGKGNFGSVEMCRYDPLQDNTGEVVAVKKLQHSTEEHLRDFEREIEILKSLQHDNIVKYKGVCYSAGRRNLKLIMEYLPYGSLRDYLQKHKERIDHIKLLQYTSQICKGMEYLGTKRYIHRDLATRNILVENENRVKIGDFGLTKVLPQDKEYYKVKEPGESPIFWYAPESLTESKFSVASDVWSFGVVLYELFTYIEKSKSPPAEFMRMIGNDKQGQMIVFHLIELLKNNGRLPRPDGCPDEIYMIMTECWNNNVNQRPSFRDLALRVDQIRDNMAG

[4] = molecular target: T1, Tyrosine-protein kinase JAK2; experiment: Binding affinity to wild type JAK2 JH2 pseudokinase domain (unknown origin) expressed in Sf9 cells at 50 uM and measured upto 30 mins competitive fluorescence polarization assay

T1 sequence (O60674 whole entry, the tested form may be a part): as the sequence (O60674 whole entry V617F, the tested form may be a part) above, with F617V counted along it

Compound	Kd [1] [nM]	Activity [4] [%]	also measured
Nc1nc(Oc2ccc(NC(=O)CCC(=O)O)cc2)c2cc[nH]c2n1	18800	–	–
O=C(N[C@H](CO)[C@H](O)c1ccc([N+](=O)[O-])cc1)C(Cl)Cl [CHLORAMPHENICOL]	–	–	Papp at 18 h (in vitro): 4.53 ×10⁻⁶ cm/s
Nc1nc(Oc2ccc(NC(=O)N[C@H](Cc3ccccc3)C(=O)O)cc2)c2cc[nH]c2n1	9900	–	–
Nc1nc(Oc2ccc(NC(=O)N[C@@H](Cc3ccccc3)C(=O)O)cc2)c2cc[nH]c2n1	2220	–	–
Nc1nc(Oc2ccc(NC(=O)N[C@@H](CCc3ccccc3)C(=O)O)cc2)c2cc[nH]c2n1	327	–	Kd [2]: 36100 nM; Kd [3]: 179 nM
Nc1nc(Oc2ccc(NC(=O)N[C@@H](CCCc3ccccc3)C(=O)O)cc2)c2cc[nH]c2n1	587	–	–
Nc1nc(Oc2ccc(NS(=O)(=O)CCC(=O)O)cc2)c2cc[nH]c2n1	–	18	–
Nc1nc(Oc2ccc(NC(=O)N[C@@H](COCc3ccccc3)C(=O)O)cc2)c2cc[nH]c2n1	590	–	–
Nc1nc(-c2ccc(S(=O)(=O)CCC(=O)O)cc2)c2cc[nH]c2n1	–	4	–
Nc1nc(Oc2ccc(NC(=O)CCCC(=O)O)cc2)c2cc[nH]c2n1	–	27	–
Nc1nc(Oc2ccc(NC(=O)NCCC(=O)O)cc2)c2cc[nH]c2n1	–	30	–
Nc1nc(Oc2ccc(NC(=O)N[C@H](CCc3ccccc3)C(=O)O)cc2)c2cc[nH]c2n1	–	46	–

Source: ChEMBL document CHEMBL5131519, “Conversion of a False Virtual Screen Hit into Selective JAK2 JH2 Domain Binders Using Convergent Design Strategies” (ACS Med Chem Lett, 2022)
